From ChEMBL document CHEMBL1201862, “PubChem BioAssay data set” (2004)
One block for each compound: values may come before it. Active and inactive are the calls of the source. Rule as the data show it, for most assays here: actives have a measured EC50 and inactives only a lower limit.

Tests used:
[1] = HEp-2 cell cytotoxicity, dose response, cytotoxicity control for RSV inhibitor project, HTS (AID 2410); format: functional; settings: human respiratory syncytial virus
[2] = target: T1, Heat shock factor protein 1 (Mus musculus, UniProt P38532); test: inhibition of MG132-induced HSE-luciferase signal, confirmation, cell-based, NIH3T3, luminescence, dose retest (AID 2382); format: functional;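 also: NIH3T3 fibroblasts with HSF1-driven luciferase reporter stressed by proteasome inhibitor MG132; luminescence from HSF1-driven luciferase expression after 8 hours of MG132 stress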
T1 sequence (P38532 whole entry): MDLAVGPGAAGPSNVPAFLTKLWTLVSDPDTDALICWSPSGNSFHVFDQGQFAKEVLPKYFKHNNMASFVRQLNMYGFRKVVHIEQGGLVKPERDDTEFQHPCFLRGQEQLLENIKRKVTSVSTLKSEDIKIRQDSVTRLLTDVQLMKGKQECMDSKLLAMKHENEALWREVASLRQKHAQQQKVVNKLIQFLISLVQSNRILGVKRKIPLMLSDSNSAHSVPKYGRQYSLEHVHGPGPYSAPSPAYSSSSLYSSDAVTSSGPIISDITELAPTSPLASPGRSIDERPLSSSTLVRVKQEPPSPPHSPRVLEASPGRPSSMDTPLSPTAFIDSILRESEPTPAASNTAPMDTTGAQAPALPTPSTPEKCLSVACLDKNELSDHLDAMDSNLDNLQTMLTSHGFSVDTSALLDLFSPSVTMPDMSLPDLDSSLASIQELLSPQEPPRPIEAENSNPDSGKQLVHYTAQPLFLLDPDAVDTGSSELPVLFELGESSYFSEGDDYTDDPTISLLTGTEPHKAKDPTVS

[3] = inhibitors of intracellular T. cruzi replication, confirmation, NIH3T3 host cells, beta-gal luminescence (AID 2044); format: functional, cell-based;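 also: intracellular parasites grown in NIH/3T3 mouse fibroblasts as host cells; luminescent beta-galactosidase reporter signal from transgenic T. cruzi replicating inside host cells; inhibitors lower the luminescence signal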
[4] = cytotoxicity toward NIH3T3 fibroblasts, dose response, counter-screen, cell-based, ATP luminescence, mouse fibroblasts (AID 2010); format: functional;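 also: cells exposed to compound for about 90 hours before reading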
Cytochrome P450 2C9 = Cytochrome P450 2C9 (Homo sapiens, UniProt P11712)
Chain of Cytochrome P450 2C9 (P11712 whole entry): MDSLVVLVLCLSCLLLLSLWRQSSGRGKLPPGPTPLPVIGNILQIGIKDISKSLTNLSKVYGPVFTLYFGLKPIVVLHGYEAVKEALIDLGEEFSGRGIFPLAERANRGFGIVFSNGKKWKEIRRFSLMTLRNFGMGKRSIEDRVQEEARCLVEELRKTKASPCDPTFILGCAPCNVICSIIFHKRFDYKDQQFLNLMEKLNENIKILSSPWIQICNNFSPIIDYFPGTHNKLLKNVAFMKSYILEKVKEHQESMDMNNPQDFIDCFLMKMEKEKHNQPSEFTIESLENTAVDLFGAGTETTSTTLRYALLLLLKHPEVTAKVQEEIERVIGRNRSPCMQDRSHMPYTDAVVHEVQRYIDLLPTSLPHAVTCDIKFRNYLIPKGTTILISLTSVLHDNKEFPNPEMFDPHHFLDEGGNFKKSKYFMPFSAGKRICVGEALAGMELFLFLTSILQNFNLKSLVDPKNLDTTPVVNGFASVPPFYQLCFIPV

[5] = NIH-3T3 fibroblast cytotoxicity, dose response, cytotoxicity control, cell-based, fluorescence, Alamar Blue, secondary assay (AID 2327); format: functional;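 also: NIH-3T3 mouse fibroblasts cultured with fluconazole at 8 µg/mL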
[6] = C. albicans growth with fluconazole, confirmation, fluorescence, retest (AID 2467); format: functional, cell-based
[7] = tested on: Streptococcus sp. 'group A'; test: growth inhibition of control SK(-) GAS strain, dose response, counter-screen for streptokinase expression inhibitor project, luminescence, kanamycin, BacTiterGlo, confirmation (AID 1900); format: functional, organism-based
Streptococcus = test: Group A Streptococcus viability loss, dose response, counter-screen for streptokinase expression inhibitor project, luminescence, BacTiterGlo (AID 1915); format: functional, organism-based;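 also: potency for reduction of bacterial viability or growth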

SMILES: CNC(S)=Nc1sc2c(c1C(=O)OC)CCC2
CC50 [1]: 36.2 µM (active)

SMILES: CC(=O)COc1ccc2c3c(c(=O)oc2c1)CCCC3
CC50 [1]: > 50 µM (active)

EC50 [2]: 23 µM (active)
SMILES: O=C(COC(=O)c1cc[n+]([O-])cc1)Nc1cccc(Cl)c1Cl

SMILES: Fc1cccc(Cl)c1Cn1nnc(-c2ccc3c(c2)OCO3)n1
CC50 [1]: 26.2 µM (active)

SMILES: O=C(NCC1CCCO1)c1cc2c3ccccc3nc-2c(-c2cccc(Br)c2)[nH]1 (configuration not stated)
EC50 [3]: 0.882 µM (active)
EC50 [4]: > 60 µM (not active)

EC50 [2]: > 195 µM (not active)
SMILES: Cc1ccc(-c2csc(NC(=O)c3ccc(S(=O)(=O)N4CCc5ccccc54)cc3)n2)cc1

SMILES: Cn1c(=S)c2nc(SCCN3CCCC3)[nH]c2n(C)c1=O
AC50 (Cytochrome P450 2C9): 3.16 µM (inconclusive)

SMILES: CN1CCN(Cc2ccc(Sc3ccc(Cl)cc3)c([N+](=O)[O-])c2)CC1
EC50 [3]: 1.13 µM (active)
EC50 [4]: > 60 µM (not active)

SMILES: CCOc1ccc(NCC(=O)c2ccc(C)cc2)cc1
EC50 [2]: > 195 µM (not active)
EC50 [3]: 1.38 µM (active)
EC50 [4]: > 30 µM (not active)

EC50 [2]: > 195 µM (not active)
SMILES: Cc1ccccc1-c1nc2sc3c(c2c(=O)n1N)CCCC3

SMILES: CCOc1ccc(CN(C)CC(=O)Nc2cccc(S(=O)(=O)N(C)c3ccccc3)c2)cc1
EC50 [3]: 0.181 µM (active)
EC50 [4]: > 60 µM (not active)

EC50 [2]: > 195 µM (not active)
SMILES: O=C(COC(=O)c1cc(Cl)ccc1O)NNC(=O)c1ccc([N+](=O)[O-])cc1

EC50 [2]: > 195 µM (not active)
SMILES: Cc1ccc(S(=O)(=O)N(C)c2c(C)ccc(S(=O)(=O)N3CCN(C)CC3)c2C)cc1

SMILES: CN1CCN(Cc2cccc(Oc3ccc(Cl)cc3)c2)CC1
EC50 [3]: 0.267 µM (active)
EC50 [4]: > 60 µM (inconclusive)

AC50 (Cytochrome P450 2C9): 2.51 µM (inconclusive)
SMILES: Nc1cc2c(nc3c4ccccc4c(N)cc3[n+]2-c2cccc3ccccc23)c2ccccc12.Nc1cc2c(nc3c4ccccc4ccc3[n+]2-c2cccc3ccccc23)c2ccccc12

SMILES: Cc1ccccc1N1CCN(CCN2C(=O)CC(=C3c4ccccc4-c4ccccc43)C2=O)CC1
EC50 [5]: > 160 µM (inactive)
EC50 [6]: 3.89 µM (active)

AC50 (Cytochrome P450 2C9): 10 µM (inconclusive)
SMILES: Cc1ccc2cc(CCNC(=O)c3ccc(Br)o3)c(O)nc2c1

SMILES: O=C(Oc1ccc2ccc(=O)oc2c1)c1ccco1
EC50 [3]: > 60 µM (not active)
EC50 [4]: > 60 µM (not active)

SMILES: COC(=O)C1=C(C)N(c2ccc(Cl)cc2)/C(=C/c2ccc(O)cc2)C1=O
CC50 [1]: 36.3 µM (active)

SMILES: CCCCCCCCn1c(N2CCN(c3cccc(Cl)c3)CC2)nc2c1c(=O)[nH]c(=O)n2C
EC50 [3]: 2.22 µM (active)
EC50 [4]: > 60 µM (not active)

EC50 [2]: 2.01 µM (active)
SMILES: N#Cc1cc2c(nc1SCC(=O)N1CCOCC1)CCCCC2

AC50 (Cytochrome P450 2C9): 10 µM (inconclusive)
SMILES: CC(C)c1nnc(-c2ccc(Cl)cc2)c(N(C)C)n1

SMILES: CCc1c(C)sc(NC(=O)CN2CCN(C(=O)c3ccco3)CC2)c1C(=O)OC
CC50 [1]: 12.7 µM (active)

SMILES: O=c1[nH]c(NCCO)nc2c1C1(CCCCC1)Cc1ccccc1-2
CC50 [1]: > 50 µM (active)

SMILES: CCc1nnc(NC(=O)CSc2nnc(CNc3cccc(C)c3)n2-c2ccccc2)s1
EC50 [5]: > 150 µM (inactive)
EC50 [6]: > 38 µM (not active)

SMILES: COc1ccc(CCn2c(C)cc3c(c2=O)C(c2ccc4c(c2)OCO4)C(C#N)=C(N)O3)cc1OC (configuration not stated)
EC50 [5]: > 160 µM (inactive)
EC50 [6]: > 38 µM (not active)

SMILES: CCCCn1c(-c2ccco2)nc2oc3ccccc3c(=O)c2c1=O
EC50 [7]: 64 µM (active)
EC50 (Streptococcus): 46.1 µM (active)

EC50 [2]: > 195 µM (not active)
SMILES: Cc1cc(C)n(C(=O)c2ccncc2)n1

SMILES: O=[N+]([O-])c1ccc(C2CCCC/C2=N/OCc2ccc(F)cc2)c([N+](=O)[O-])c1 (configuration not stated)
EC50 [5]: > 160 µM (inactive)
EC50 [6]: 21.6 µM (active)
EC50 [3]: 0.492 µM (active)
EC50 [4]: > 60 µM (not active)

SMILES: Cc1ccc(NC(=O)CC2SC(N/N=C3\CCCc4ccccc43)=NC2=O)cc1 (configuration not stated)
CC50 [1]: 15.5 µM (active)

SMILES: COC(=O)/C(=N/Nc1ccc(C)cc1)N1CCCc2ccccc21
CC50 [1]: 22.3 µM (active)

SMILES: C=CCNC(=S)N/N=C/c1ccc(-c2ccc(OC)cc2)o1
EC50 [5]: > 150 µM (inactive)
EC50 [6]: > 38 µM (not active)
EC50 [3]: 1.76 µM (active)
EC50 [4]: > 60 µM (not active)

SMILES: O=C(N/N=C/c1cccc(Oc2ccccc2)c1)c1cccc(Br)c1
CC50 [1]: 17 µM (active)

EC50 [2]: > 195 µM (not active)
SMILES: c1ccc(-c2nn[nH]n2)nc1
